This note sets out measurements from ChEMBL document CHEMBL1123638 (J Med Chem, 1987).

Molecules are shown by their SMILES. ≈ marks a conversion by molar mass, not a printed value.

The target of data set [1] is T1, Dihydrofolate reductase (Rattus norvegicus, UniProt Q920D2).
T1 sequence (Q920D2 whole entry): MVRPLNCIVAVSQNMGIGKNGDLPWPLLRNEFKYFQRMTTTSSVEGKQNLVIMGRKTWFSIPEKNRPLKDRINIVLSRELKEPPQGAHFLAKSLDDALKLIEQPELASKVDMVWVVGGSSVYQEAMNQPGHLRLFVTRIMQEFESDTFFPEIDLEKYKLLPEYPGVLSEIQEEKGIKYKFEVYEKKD
Description: Inhibitory activity against dihydrofolate reductase (DHFR) enzyme from rat liver. As to conditions: read-out: I50.

The next data set relates to Escherichia coli. Briefly: In vitro antibacterial activity against Escherichia coli (CN314).
The next data set concerns Proteus vulgaris. Briefly: In vitro antibacterial activity against Proteus vulgaris (CN3296).
A further data set has as its system Salmonella. Description: In vitro antibacterial activity against Salmonella typhi (CN512).
The subject of the next data set is Shigella flexneri. Description: In vitro antibacterial activity against Shigella flexneri (CN6007).
In a further data set the test system is Klebsiella pneumoniae. Description: microbe, parasite or virus in culture.
A further data set relates to Staphylococcus aureus. Description: In vitro antibacterial activity against Staphylococcus aureus (CN491).
Data set [2] has as its target T2, Dihydrofolate reductase (Gallus gallus, UniProt P00378).
T2 sequence (P00378 whole entry): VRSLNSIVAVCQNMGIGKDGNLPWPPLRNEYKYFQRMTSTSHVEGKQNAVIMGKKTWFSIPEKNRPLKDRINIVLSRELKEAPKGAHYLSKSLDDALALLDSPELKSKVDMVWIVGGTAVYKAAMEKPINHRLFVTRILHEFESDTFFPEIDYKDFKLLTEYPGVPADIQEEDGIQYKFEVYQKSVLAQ
Briefly: Inhibitory activity against dihydrofolate reductase (DHFR) enzyme from chicken liver. As to conditions: read-out: I50.

The test system of another data set is Klebsiella aerogenes. Description: In vitro antibacterial activity against Enterobacter aerogenes (2200/86).
The target in data set [3] is Bifunctional dihydrofolate reductase-thymidylate synthase (Plasmodium berghei str. ANKA, UniProt Q27713). Briefly: Inhibitory activity against dihydrofolate reductase (DHFR) enzyme from Plasmodium berghei. The conditions noted are these: read-out: I50.
A short description of data set [4]: Partition coefficient (logP). The data set is classed as physicochemical. As to conditions: octanol/water.
The nature of data set [5]: Acid dissociation constant was determined. It counts as ADME.

Chain of Bifunctional dihydrofolate reductase-thymidylate synthase (Q27713 whole entry): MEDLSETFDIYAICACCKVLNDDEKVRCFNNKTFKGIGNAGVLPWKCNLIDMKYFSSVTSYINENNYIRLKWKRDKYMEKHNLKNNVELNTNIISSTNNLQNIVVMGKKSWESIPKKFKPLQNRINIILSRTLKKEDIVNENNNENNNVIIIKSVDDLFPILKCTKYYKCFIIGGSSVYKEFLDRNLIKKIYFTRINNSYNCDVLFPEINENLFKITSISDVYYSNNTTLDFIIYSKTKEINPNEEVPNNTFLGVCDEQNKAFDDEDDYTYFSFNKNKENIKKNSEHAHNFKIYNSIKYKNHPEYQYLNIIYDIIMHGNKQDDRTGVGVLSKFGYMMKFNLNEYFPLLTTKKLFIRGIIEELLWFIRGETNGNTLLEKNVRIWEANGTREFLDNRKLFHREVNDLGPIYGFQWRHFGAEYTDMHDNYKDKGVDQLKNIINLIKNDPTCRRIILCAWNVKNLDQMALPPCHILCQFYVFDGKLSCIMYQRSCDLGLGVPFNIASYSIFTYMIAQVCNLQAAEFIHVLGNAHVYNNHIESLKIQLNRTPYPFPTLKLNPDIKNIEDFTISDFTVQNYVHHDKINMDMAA
Description for Klebsiella pneumoniae: In vitro antibacterial activity against Klebsiella pneumoniae (CN 3632)

`COc1ccc(Cc2cnc(N)nc2N)cc1`: the IC50 at Dihydrofolate reductase [1] stood at 170 µM.

Turning to `CCc1ccc(Cc2cnc(N)nc2N)cc1CC`, the MIC was determined as 3 µg/mL (≈ 11.7 µM) with Escherichia coli; 30 µg/mL (≈ 117 µM) in the data set on Proteus vulgaris; 3 µg/mL (≈ 11.7 µM) with Salmonella; 10 µg/mL (≈ 39 µM) with Shigella flexneri; 30 µg/mL (≈ 117 µM) against Klebsiella pneumoniae; 3 µg/mL (≈ 11.7 µM) in the data set on Staphylococcus aureus. The MIC in the data set on Klebsiella aerogenes worked out at 10 µg/mL (≈ 39 µM). In addition, the figures for the IC50 (at Dihydrofolate reductase [1]; at Dihydrofolate reductase [2]; in data set [3]) were 59 µM, 120 µM and 68 nM, respectively.

By logP is commonly meant the decadic logarithm of the partition coefficient of the neutral form, usually between octanol and water. A lower logP goes with lower lipophilicity. One may read the pKa as the pH at which an ionisable group is half protonated. Read a high pKa as a weaker acid or stronger base. Turning to `CCc1cc(Cc2cnc(N)nc2N)cc(CC)c1CC`, the MIC with Escherichia coli was found to be 1 µg/mL (≈ 3.52 µM); in the data set with Proteus vulgaris it was 30 µg/mL (≈ 105 µM); against Salmonella it was 1 µg/mL (≈ 3.52 µM); with Shigella flexneri, 3 µg/mL (≈ 10.5 µM); in the data set on Klebsiella pneumoniae it was 10 µg/mL (≈ 35.2 µM); in the data set with Staphylococcus aureus, 0.1 µg/mL (≈ 0.352 µM). This molecule displayed an MIC in the data set with Klebsiella aerogenes of 10 µg/mL (≈ 35.2 µM). The molecule further returned a logP in [4] of 1.33. Moreover, the IC50 on Dihydrofolate reductase [1] is 38 µM; on Dihydrofolate reductase [2], 33 µM; in data set [3], 73 nM. For the same molecule, the pKa in data set [5] turned out to be 7.12.

Take `CC(C)(C)c1ccc(Cc2cnc(N)nc2N)cc1`: the MIC with Escherichia coli stood at 10 µg/mL (≈ 39 µM); against Proteus vulgaris it was 100 µg/mL (≈ 390 µM); with Salmonella it was 10 µg/mL (≈ 39 µM); against Shigella flexneri, 30 µg/mL (≈ 117 µM); against Klebsiella pneumoniae, 100 µg/mL (≈ 390 µM); against Staphylococcus aureus, 10 µg/mL (≈ 39 µM). For the same molecule, the MIC against Klebsiella aerogenes amounted to 30 µg/mL (≈ 117 µM). The IC50 at Dihydrofolate reductase [1] is 230 µM.

In the case of `CCc1ccc(Cc2cnc(N)nc2N)cc1`, the MIC in the data set with Escherichia coli is 10 µg/mL (≈ 43.8 µM); against Proteus vulgaris, 30 µg/mL (≈ 131 µM); in the data set with Salmonella it was 10 µg/mL (≈ 43.8 µM); in the data set with Shigella flexneri it was 10 µg/mL (≈ 43.8 µM); with Klebsiella pneumoniae it was 30 µg/mL (≈ 131 µM); against Staphylococcus aureus it was 30 µg/mL (≈ 131 µM). This molecule also yielded an MIC against Klebsiella aerogenes of 10 µg/mL (≈ 43.8 µM). Also, the IC50 on Dihydrofolate reductase [1] is above 40 µM.

For the molecule `CCc1ccc(Cc2cnc(N)nc2N)cc1C(C)C`, the MIC was 30 µg/mL (≈ 111 µM) against Escherichia coli; 100 µg/mL (≈ 370 µM) against Proteus vulgaris; 10 µg/mL (≈ 37 µM) with Salmonella; 30 µg/mL (≈ 111 µM) with Shigella flexneri; 100 µg/mL (≈ 370 µM) against Klebsiella pneumoniae; 3 µg/mL (≈ 11.1 µM) in the data set with Staphylococcus aureus. Besides, the MIC against Klebsiella aerogenes came to 100 µg/mL (≈ 370 µM). In addition, on Dihydrofolate reductase [1], the IC50 worked out at 29 µM.

Regarding `CC(C)c1ccc(Cc2cnc(N)nc2N)cc1`, the MIC is 16 µg/mL (≈ 66 µM) in the data set on Escherichia coli; 125 µg/mL (≈ 516 µM) in the data set with Proteus vulgaris; 16 µg/mL (≈ 66 µM) against Salmonella; 32 µg/mL (≈ 132 µM) in the data set with Shigella flexneri; 8 µg/mL (≈ 33 µM) with Staphylococcus aureus. The IC50 on Dihydrofolate reductase [1] was 210 µM.

Consider `COc1ccc(Cc2cnc(N)nc2N)cc1OC` [DIAVERIDINE], for which the MIC with Escherichia coli was 0.5 µg/mL (≈ 1.92 µM); against Proteus vulgaris it was 5 µg/mL (≈ 19.2 µM); with Salmonella it was 0.1 µg/mL (≈ 0.384 µM); with Shigella flexneri, 0.5 µg/mL (≈ 1.92 µM); against Klebsiella pneumoniae it was 5 µg/mL (≈ 19.2 µM); with Staphylococcus aureus it was 5 µg/mL (≈ 19.2 µM). For the same molecule, the MIC with Klebsiella aerogenes came out at 0.5 µg/mL (≈ 1.92 µM). The IC50 at Dihydrofolate reductase [1] is 78 µM; on Dihydrofolate reductase [2], 300 µM; in data set [3] it was 210 nM.

Consider `COc1cc(Cc2cnc(N)nc2N)cc(OC)c1OC` [TRIMETHOPRIM], for which the MIC against Escherichia coli is 0.1 µg/mL (≈ 0.344 µM); against Proteus vulgaris, 1 µg/mL (≈ 3.44 µM); in the data set with Salmonella it was 0.03 µg/mL (≈ 0.103 µM); in the data set on Shigella flexneri, 0.1 µg/mL (≈ 0.344 µM); against Klebsiella pneumoniae it was 1 µg/mL (≈ 3.44 µM); against Staphylococcus aureus it was 0.3 µg/mL (≈ 1.03 µM). Besides, the MIC with Klebsiella aerogenes came to 0.3 µg/mL (≈ 1.03 µM).
